From US8937183B2, “Detection of hydrogen peroxide” (Promega Corporation, priority 2011, dated 2015)

Experiments:
[1] = Light generation from compounds following incubation with hydrogen peroxide in different pH solutions (D-cysteine conversion, LDR); type: biochemical; conditions: for Signal to Background Ratios: signal with peroxide to background no peroxide
Description: In this experiment, various compounds were tested for their ability to detect hydrogen peroxide in different pH solutions. Several compounds are shown to give much better signal strength and signal to background ratios than PBI 3048 (Example 23). 4 mg/ml solutions of compounds PBI 4480, 4481, 4452, 4470, 4472, 3048 (FIGS. 1 and 2) were made by dissolving them in DMSO (Fluka 41641). 30 μl of the compound solutions was diluted to 1.5 ml with Nanopure water, and 50 μl aliquots added as follows into a white, 96-well luminometer plate: PBI 4481, row A1-12; PBI 4480, row B1-12; PBI 4452, row C1-12; PBI 3048, row D1-12; PBI 4472, row E1-12 and PBI 4470, row F1-12.
25 μl of 200 mM TRIS buffer, pH 7.6 was added to wells A1-F4, 25 μl of 200 mM TRIS buffer, pH 8.8 was added to wells A5-F8, and 25 μl of 200 mM Tris buffer, pH 10.4 was added […].
30% hydrogen peroxide (Sigma H 1009-5 ml) was diluted to 40 μM in Nanopure water, and 25 μl added to columns 3, 4, 7, 8, 11 and 12 of the plate. 25 μl water was added to columns 1, 2, 5, 6, 9, and 10 of the plate, and the plate incubated at room temperature for 60 minutes.
A conversion solution was made by mixing 100 μl of 100 mM D-cysteine, 1 ml Tris Buffer pH 8.8 and 8.9 ml nanopure water. After mixing, 80 μl of the solution was added to wells A1-F12 of a new luminometer plate.
After incubation, 20 μl of sample from wells A1-F12 of the first plate was transferred to the same well in the new luminometer plate. The new plate was incubated at room temperature for 5 minutes, 100 μl of LDR (Example 23) was added to wells A1-F12, and bioluminescence detected on a Glo Max® luminometer (Promega).
The RLUs for the duplicate wells were averaged. The averages for the wells containing hydrogen peroxide were compared to the wells without hydrogen peroxide at the same pH (Table 2). BZT is used to designate benzothiazole derivatives of the compounds.
The Signal to Background (S/B) ratio is used to compare assay reagents with very difference signal strengths. An assay with a higher S/B ratio is often considered a better assay than one with a smaller S/B ratio (with all other factors being relatively equal).

[2] = Signal differences in mammalian cell culture media (DMEM) versus physiological buffer (HBSS) with hydrogen peroxide; type: biochemical; conditions: 30 minutes
Description: A 100 μl sample of 4 mg/ml DMSO solution of PBI 4458 was diluted to 500 μl with HBSS buffer (Invitrogen 14025-092), and 50 μl added to wells A1-A9 of a fresh microtiter plate (“DISP”). 100 μl 4 mg/ml DMSO solution of PBI 4472 was diluted to 500 μl with HBSS, and 50 μl added to wells E1-E9. 90 μl HBSS was added to wells A1-B9 of two new microtiter plates labeled “RT” and “37C”. 90 μl DMEM was added to wells C1-D9 of both plates.
A sample of 30% hydrogen peroxide (Sigma H1009-5 ml) was diluted to 1 mM with Nanopure water, and 7.5 μl 1 mM hydrogen peroxide diluted to 1.5 ml with HBSS, and 90 μl added to wells A4-B6 of plates RT and 37° C. 15 μl 1 mM hydrogen peroxide was diluted to […] with HBSS, and 90 μl added to wells A7-B9 of both plates. 90 μl of HBSS was added to wells A1-B3, and 90 μl of DMEM added to wells C1-D3 of both plates. 7.5 μl 1 mM hydrogen peroxide was diluted to 1.5 ml with DMEM, and 90 μl added to wells C4-D6 of both plates. 15 μl 1 mM hydrogen peroxide was diluted to 1.5 ml with DMEM and 90 μl added to wells C7-D9 of both plates.
10 μl samples of row A of plate “DISP” was transferred to rows A and C of plates RT and 37° C., and 10 μl of row B of plate “DISP” transferred to rows B and D of plates RT and 37° C. The 37° C. plate was incubated at 37° C., 5% CO2, with plate RT incubated at room temperature. Both plates were incubated for 30 minutes.
A conversion solution was made by mixing 7.5 ml of 1 M HEPES, pH 8.0, 7.4 ml Nanopure water and 100 μl 100 mM D cysteine. After mixing, 75 μl was added to all wells of a new luminometer plate.
After incubation, 25 μl from wells A1-D9 of the 37° C. plate was transferred to wells E1-H9 of the new luminometer plate, 25 μl of wells A1-D9 of the RT plate was transferred to wells A1-D9 of new luminometer plate, and the plate incubated at room temperature for 2-3 minutes. A 100 μl sample of LDR (Example 23) was added to wells A1-H9, incubated for 15 minutes at room temperature, and bioluminescence detected on a GloMax® luminometer. After reading, the duplicate wells were averaged, and the averaged values with peroxide addition were compared to those without peroxide (Table 11).

[3] = pH 7.6 TRIS buffer, No H2O2, 60 minutes
[4] = pH 7.6 TRIS buffer, With H2O2 (25 μl of 40 μM added), 60 minutes
[5] = pH 8.8 TRIS buffer, No H2O2, 60 minutes
[6] = pH 8.8 TRIS buffer, With H2O2 (25 μl of 40 μM added), 60 minutes
[7] = pH 10.4 Tris buffer, No H2O2, 60 minutes
[8] = pH 10.4 Tris buffer, With H2O2 (25 μl of 40 μM added), 60 minutes

| Structure (SMILES) | Signal to Background Ratios ([1]; pH 7.6) | averaged RLUs (bioluminescence) [1, 3] | averaged RLUs (bioluminescence) [1, 4] | Signal to Background Ratios ([1]; pH 8.8) | averaged RLUs (bioluminescence) [1, 5] | averaged RLUs (bioluminescence) [1, 6] | Signal to Background Ratios ([1]; pH 10.4) | averaged RLUs (bioluminescence) [1, 7] | averaged RLUs (bioluminescence) [1, 8] | Averaged Relative Light Unit Values ([2]; DMEM, 37 C. plate, 0 uM Per) | Averaged Relative Light Unit Values ([2]; DMEM, 37 C. plate, 5 uM Per) | Averaged Relative Light Unit Values ([2]; DMEM, 37 C. plate, 10 uM Per) | Averaged Relative Light Unit Values ([2]; DMEM, RT plate, 0 uM Per) | Averaged Relative Light Unit Values ([2]; DMEM, RT plate, 5 uM Per) | Averaged Relative Light Unit Values ([2]; DMEM, RT plate, 10 uM Per) | Averaged Relative Light Unit Values ([2]; HBSS, 37 C. plate, 0 uM Per) | Averaged Relative Light Unit Values ([2]; HBSS, 37 C. plate, 5 uM Per) | Averaged Relative Light Unit Values ([2]; HBSS, 37 C. plate, 10 uM Per) | Averaged Relative Light Unit Values ([2]; HBSS, RT plate, 0 uM Per) | Averaged Relative Light Unit Values ([2]; HBSS, RT plate, 5 uM Per) | other results |
| --- | --- | --- | --- | --- | --- | --- | --- | --- | --- | --- | --- | --- | --- | --- | --- | --- | --- | --- | --- | --- | --- |
| CC1(C)OB(c2ccc(COc3ccc4nc(C#N)sc4c3)c3ccccc23)OC1(C)C [PBI 4480, 6-((4-(4,4,5,5-tetramethyl-1,3,2-dioxaborolan-2-yl)naphthalen-1-yl)methoxy)benzo[d]thiazole-2-carbonitrile] | 4.5 | 146,664 RLU | 657,132 RLU | 8.7 | 179,821 RLU | 1,563,422 RLU | 20.0 | 265,315 RLU | 5,295,463 RLU |  |  |  |  |  |  |  |  |  |  |  |  |
| CC1(C)OB(c2ccc(COc3ccc4nc(C#N)sc4c3)cc2F)OC1(C)C [PBI 4481, 6-((3-fluoro-4-(4,4,5,5-tetramethyl-1,3,2-dioxaborolan-2-yl)benzyl)oxy)benzo[d]thiazole-2-carbonitrile] | 7.0 | 124,246 RLU | 873,626 RLU | 21.1 | 135,530 RLU | 2,854,279 RLU | 32.4 | 230,459 RLU | 7,474,603 RLU |  |  |  |  |  |  |  |  |  |  |  |  |
| CC1(C)OB(/C=C/COc2ccc3nc(C#N)sc3c2)OC1(C)C [PBI 4458, (E)-6-((3-(4,4,5,5-tetramethyl-1,3,2-dioxaborolan-2-yl)allyl)oxy)-benzo[d]thiazole-2-carbonitrile] |  |  |  |  |  |  |  |  |  | 986,772 Relative Light Unit | 5,686,033 Relative Light Unit | 12,130,782 Relative Light Unit | 2,075,191 Relative Light Unit | 8,556,256 Relative Light Unit | 16,016,143 Relative Light Unit | 434,728 Relative Light Unit | 2,791,805 Relative Light Unit | 4,912,905 Relative Light Unit | 853,268 Relative Light Unit | 6,111,214 Relative Light Unit | Averaged Relative Light Unit Values ([2]; HBSS, RT plate, 10 uM Per): 10,641,411 Relative Light Unit |
| CC1(C)OB(c2ccc(COc3ccc4nc(C#N)sc4c3)cc2)OC1(C)C [PBI 4472, 6-((4-(4,4,5,5-tetramethyl-1,3,2-dioxaborolan-2-yl)benzyl)oxy)benzo-[d]thiazole-2-carbonitrile] | 18.0 | 102,925 RLU | 1,854,434 RLU | 31.6 | 163,710 RLU | 5,175,361 RLU | 24.1 | 337,921 RLU | 8,159,216 RLU | 400,077 Relative Light Unit | 3,083,589 Relative Light Unit | 5,340,569 Relative Light Unit | 921,496 Relative Light Unit | 4,304,645 Relative Light Unit | 8,071,553 Relative Light Unit | 44,007 Relative Light Unit | 424,851 Relative Light Unit | 715,803 Relative Light Unit | 103,738 Relative Light Unit | 1,106,195 Relative Light Unit | Averaged Relative Light Unit Values ([2]; HBSS, RT plate, 10 uM Per): 2,058,421 Relative Light Unit |
| O=C(O)C1CSC(c2nc3ccc(OCc4ccc(B(O)O)cc4)cc3s2)=N1 (stereo not drawn) [PBI 3048] | 3.0 | 569,141 RLU | 1,726,143 RLU | 4.5 | 558,869 RLU | 2,499,869 RLU | 6.7 | 558,333 RLU | 3,768,437 RLU |  |  |  |  |  |  |  |  |  |  |  |  |
